Read-outs that look alike come from different tables or passages of the source.

The assay addresses Human Factor D (Homo sapiens (Human), UniProt P00746). In words: Human Factor D Assay. The format is biochemical. The essentials: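 Serum-purified human Factor D (80 nM final) was preincubated with test compound at various concentrations for 5 min at room temperature in 50 mM Tris, 1M NaCl, pH 7.5. Z-L-Lys-SBzl and DTNB were then added at 100 μM each. IC50 came from nonlinear regression of reaction rates versus compound concentration.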

[1] abbreviates: Table 3, Human Factor D 80 nM, substrate Z-L-Lys-SBzl, read-out: IC50 (Stars).
Where [2] appears, read: Human Factor D, Table 3, read-out: IC50.
Setting [3] is: Human Factor D 80 nM, substrate Z-L-Lys-SBzl, read-out: IC50.

Human Factor D, sequence (P00746 26-253): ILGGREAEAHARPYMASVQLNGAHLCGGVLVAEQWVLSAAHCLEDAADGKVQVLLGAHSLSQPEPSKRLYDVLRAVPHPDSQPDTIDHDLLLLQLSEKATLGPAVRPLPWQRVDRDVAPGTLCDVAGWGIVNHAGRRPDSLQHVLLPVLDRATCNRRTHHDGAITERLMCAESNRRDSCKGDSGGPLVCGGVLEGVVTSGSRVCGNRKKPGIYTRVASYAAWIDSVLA

In general, IC50 refers to the midpoint of a concentration-inhibition curve. Regarding `Cc1ncc(-c2ccc3c(c2)c([C@H](C)O)nn3CC(=O)N2[C@@H]3C[C@@H]3C[C@H]2C(=O)Nc2cccc(Br)n2)cn1` [Compound 409, (1R,3S,5R)—N-(6-Bromopyridin-2-yl)-2-(2-(3-((S)-1-hydroxyethyl)-5-(2-methylpyrimidin-5-yl)-1H-indazol-1-yl)acetyl)-2-azabicyclo[3.1.0]hexane-3-carboxamide], the half-maximal inhibitory concentration (IC50) under setting [1] was under 1000 nM.
As to `CC(=O)c1nn(CC(=O)N2C3CC3(CN)C[C@H]2C(=O)Nc2cccc(Br)n2)c2ccc(-c3cnc(C)nc3)cc12` (stereo partly drawn) [Compound 454, (3S)-2-(2-(3-Acetyl-5-(2-methylpyrimidin-5-yl)-1H-indazol-1-yl)acetyl)-5-(aminomethyl)-N-(6-bromopyridin-2-yl)-2-azabicyclo[3.1.0]hexane-3-carboxamide], the IC50 under setting [1] was under 1000 nM.
On to `COc1ncc(-c2ccc3c(c2)c(C(C)=O)nn3CC(=O)N2[C@@H]3C[C@@H]3C[C@H]2C(=O)Nc2nc(Br)ccc2C)cn1` [Compound 445, (1R,3S,5R)-2-(2-(3-Acetyl-5-(2-methoxypyrimidin-5-yl)-1H-indazol-1-yl)acetyl)-N-(6-bromo-3-methylpyridin-2-yl)-2-azabicyclo[3.1.0]hexane-3-carboxamide], for which the IC50 under setting [1] is under 1000 nM.
Regarding `CC(=O)c1nn(CC(=O)N2C[C@H](F)C[C@H]2C(=O)Nc2cccc(OC(F)F)n2)c2ccc(-c3cnc4cc(C)nn4c3)cc12` [Compound 658, (2S,4R)-1-(2-(3-Acetyl-5-(2-methylpyrazolo[1,5-a]pyrimidin-6-yl)-1H-indazol-1-yl)acetyl)-N-(6-(difluoromethoxy)pyridin-2-yl)-4-fluoropyrrolidine-2-carboxamide], the IC50 under setting [2] was under 1000 nM.
As for `CC(=O)c1nn(CC(=O)N2C[C@H](F)C[C@H]2C(=O)Nc2nc(Br)ccc2C)c2ccc(-c3cnc(C)cn3)cc12` [Compound 467, (2S,4R)-1-(2-(3-Acetyl-5-(5-methylpyrazin-2-yl)-1H-indazol-1-yl)acetyl)-N-(6-bromo-3-methylpyridin-2-yl)-4-fluoropyrrolidine-2-carboxamide], the IC50 under setting [1] is under 1000 nM.
On to `CC(=O)c1cn(CC(=O)N2C[C@H](F)C[C@H]2C(=O)NCc2cc(F)cc(Cl)c2)c2ccc(-c3ccnnc3)cc12` [Compound 46, (2S,4R)-1-(2-(3-acetyl-5-(pyridazin-4-yl)-1H-indol-1-yl)acetyl)-N-(3-chloro-5-fluorobenzyl)-4-fluoropyrrolidine-2-carboxamide], for which, under setting [3], the IC50 is under 1000 nM.
Consider `CC(=O)c1nn(CC(=O)N2CC[C@H]2C(=O)Nc2cccc(C)n2)c2ccc(-c3cnc4n3CCCC4)cc12` [Compound 705, (S)-1-(2-(3-Acetyl-5-(5,6,7,8-tetrahydroimidazo[1,2-a]pyridin-3-yl)-1H-indazol-1-yl)acetyl)-N-(6-methylpyridin-2-yl)azetidine-2-carboxamide], for which, under setting [2], the IC50 is over 10000 nM.
Consider `CC(=O)c1nn(CC(=O)N2C[C@H](F)C[C@H]2C(=O)Nc2cccc(-c3ccccc3Cl)c2F)c2ccc(-c3cnc(C)nc3)cc12` [Compound 163, (2S,4R)-1-(2-(3-acetyl-5-(2-methylpyrimidin-5-yl)-1H-indazol-1-yl)acetyl)-N-(2′-chloro-2-fluorobiphenyl-3-yl)-4-fluoropyrrolidine-2-carboxamide], for which the IC50 under setting [3] was under 1000 nM.
With `CC(=O)c1nn(CC(=O)N2C[C@H](F)C[C@H]2C(=O)Nc2cccc(OC(F)(F)F)n2)c2ccc(-c3cnc4ccnn4c3)cc12` [Compound 668, (2S,4R)-1-(2-(3-Acetyl-5-(pyrazolo[1,5-a]pyrimidin-6-yl)-1H-indazol-1-yl)acetyl)-4-fluoro-N-(6-(trifluoromethoxy)pyridin-2-yl)pyrrolidine-2-carboxamide], the IC50 under setting [2] was under 1000 nM.
On to `CC(=O)c1nn(CC(=O)N2CC=C[C@H]2C(=O)Nc2cccc(-c3ccccc3Cl)c2F)c2ccc(-c3cnc(C)nc3)cc12` [Compound 286, (S)-1-(2-(3-acetyl-5-(2-methylpyrimidin-5-yl)-1H-indazol-1-yl)acetyl)-N-(2′-chloro-2-fluorobiphenyl-3-yl)-2,5-dihydro-1H-pyrrole-2-carboxamide], for which the IC50 (Human Factor D assay of Example 8, Table 2, read-out: IC50) was under 1000 nM.
